Laboratory results: patent US20170172450A1, “SYSTEM AND METHODS FOR QUANTITATIVELY DESCRIBING BIOPHYSICAL MARKERS” (STC.UNM, priority 2014, published 2017)

How the values were obtained:
[1] = breast tumors of patients; cited from earlier work
[2] = Gemcitabine incorporation into DNA of cells in pancreatic tumor and normal pancreas (punch biopsies, Advion assay); format: in vivo, human
Protocol: Pancreatic resection was performed using standard techniques and major surgical complications were defined as previously described. Gemcitabine was administered intravenously at 500 mg/m^2 for the first 2 patients (per IRB safety recommendations) and then subsequently at 1000 mg/m^2 with an infusion pump at a fixed dose rate of 10 mg/m^2/min (over 50 min and 100 min respectively) and was delivered at the start of operation and concluded prior to specimen removal. Serum samples were collected at regular intervals during the operation to determine gemcitabine pharmacokinetics.
Immediately after specimen collection, tumors were bivalved by a surgical pathologist and 4.0 mm punch biopsies were taken from the outer and inner portions of the tumors (median 4 samples per tumor) as well from as the normal pancreas. The punch biopsies were sent for quantitative analysis of the gemcitabine metabolite incorporation into the DNA of the cells within the pancreatic tumor (i.e., cancer and stromal cells) and normal pancreas (Advion BioServices, Ithaca, N.Y.). […]
The pancreatectomy specimens were evaluated by a pathologist. […] The locations of the tumor biopsy samples that were used to quantify gemcitabine incorporation were recorded as either inner or outer tumor. […] These specimens were then processed as previously described for quantitative analysis of gemcitabine DNA incorporation (Advion Biosciences). […]

[3] = dose of 300 mg/m^2; cited from earlier work
[4] = Toxicity monitoring in clinical trial of intraoperative gemcitabine infusion; format: in vivo, human
Protocol: Pancreatic resection was performed using standard techniques and major surgical complications were defined as previously described. […] Serum samples were collected at regular intervals during the operation to determine gemcitabine pharmacokinetics. The MD Anderson Data and Safety Monitoring Board oversaw the study. Drug toxicities were evaluated according to Common Terminology Criteria for Adverse Events version 3.0. Daily postoperative labs including absolute neutrophil counts (ANC) and platelet counts were drawn. Patients received full supportive care and the use of growth factors was permitted for myelosuppression (ANC<0.5×10^9). There were 3 patients with grade III neutropenia or leukopenia, and 3 patients with grade II neutropenia. All cytopenias were transient with nadir at approximately postoperative day 6.

[5] = 12 PDAC patients, IV 500 or 1000 mg/m^2 at 10 mg/m^2/min during resection, CTCAE version 3.0

Compound: COc1cccc2c1C(=O)c1c(O)c3c(c(O)c1C2=O)C[C@@](O)(C(=O)CO)C[C@@H]3O[C@H]1C[C@H](N)[C@H](O)[C@H](C)O1 [doxorubicin]
- intra-tumoral heterogeneity in delivery [1]: some parts of the tumor not receiving any drug

Compound: Nc1ccn([C@@H]2O[C@H](CO)[C@@H](O)C2(F)F)c(=O)n1 [gemcitabine]
- gemcitabine incorporation in the tumors relative to normal pancreas ([2]; 12 patients with localized primary PDAC): ranged from sub- to supra-normal pancreas levels
- drug delivery to tumor ([2]; intraoperative gemcitabine infusion trial): measureable drug delivery in all patients
- differences in gemcitabine incorporation into the primary tumors [3]: up to 5 fold
- thrombocytopenia ([4]; 12 PDAC patients, intraoperative IV infusion): No significant thrombocytopenia
- patients with grade II neutropenia [4, 5]: 3 patients
- patients with grade III neutropenia or leukopenia [4, 5]: 3 patients
- nadir of cytopenias ([4]; all cytopenias transient): ~6 postoperative day
- infectious complications ([4]; whole cohort): no infectious complications
